Key:
[1] = system: S. epidermidis ATCC 12228; experiment: micro-dilution broth method (MIC, MBC); format: cell-based, Staphylococcus epidermidis
B. fragilis ATCC 10240 = experiment: micro-dilution broth method (MIC, MBC); format: cell-based, Bacteroides fragilis
P. aeruginosa ATCC 9027 = experiment: micro-dilution broth method (MIC, MBC); format: cell-based, Pseudomonas aeruginosa
C. jejunii ATCC 33291 = experiment: micro-dilution broth method (MIC, MBC); format: cell-based, Campylobacter jejunii
P. mirabilis ATCC 12453 = experiment: micro-dilution broth method (MIC, MBC); format: cell-based, Proteus mirabilis
B. subtilis ATCC 6633 = experiment: micro-dilution broth method (MIC, MBC); format: cell-based, Bacillus subtilis
P. intermedia ATCC 25611 = experiment: micro-dilution broth method (MIC, MBC); format: cell-based
[2] = system: C. perfringens ATCC 13124; experiment: microbe, parasite or virus in culture; format: cell-based, Clostridium perfringens
K. pneumoniae ATCC 13883 = experiment: micro-dilution broth method (MIC, MBC); format: cell-based, Klebsiella pneumoniae
A. israeli ATCC 10049 = experiment: micro-dilution broth method (MIC, MBC); format: cell-based, Actinomyces israelii
F. nucleatum ATCC 25586 = experiment: micro-dilution broth method (MIC, MBC); format: cell-based, Fusobacterium nucleatum
[3] = S. epidermidis ATCC 12228, value in brackets
[4] = B. fragilis ATCC 10240, value in brackets
[5] = P. aeruginosa ATCC 9027, value in brackets
[6] = C. jejunii ATCC 33291, value in brackets
[7] = P. mirabilis ATCC 12453, value in brackets
[8] = B. subtilis ATCC 6633, value in brackets
[9] = P. intermedia ATCC 25611, value in brackets
[10] = C. perfringens ATCC 13124, value in brackets
[11] = K. pneumoniae ATCC 13883, value in brackets
[12] = A. israeli ATCC 10049, value in brackets
[13] = F. nucleatum ATCC 25586, value in brackets

O=S(=O)([O-])[O-].[Ag+].[Ag+] [Ag2SO4, silver sulfate]
MBC ([1]; S. epidermidis ATCC 12228): 31.3 mg/L
MIC ([1]; S. epidermidis ATCC 12228): 15.6 mg/L
MBC [1, 3]: 0.1 µM/mL
MIC [1, 3]: 0.05 µM/mL
MBC (B. fragilis ATCC 10240; B. fragilis ATCC 10240): 1000 mg/L
MIC (B. fragilis ATCC 10240; B. fragilis ATCC 10240): 250 mg/L
MBC (B. fragilis ATCC 10240; [4]): 3.2 µM/mL
MIC (B. fragilis ATCC 10240; [4]): 0.8 µM/mL
MBC (P. aeruginosa ATCC 9027; P. aeruginosa ATCC 9027): 125 mg/L
MIC (P. aeruginosa ATCC 9027; P. aeruginosa ATCC 9027): 62.5 mg/L
MBC (P. aeruginosa ATCC 9027; [5]): 0.4 µM/mL
MIC (P. aeruginosa ATCC 9027; [5]): 0.2 µM/mL
MBC (C. jejunii ATCC 33291; C. jejunii ATCC 33291): > 1000 mg/L
MIC (C. jejunii ATCC 33291; C. jejunii ATCC 33291): 1000 mg/L
MBC (C. jejunii ATCC 33291; [6]): > 3.2 µM/mL
MIC (C. jejunii ATCC 33291; [6]): 3.2 µM/mL
MBC (P. mirabilis ATCC 12453; P. mirabilis ATCC 12453): 31.3 mg/L
MIC (P. mirabilis ATCC 12453; P. mirabilis ATCC 12453): 31.3 mg/L
MBC (P. mirabilis ATCC 12453; [7]): 0.1 µM/mL
MIC (P. mirabilis ATCC 12453; [7]): 0.1 µM/mL
MBC (B. subtilis ATCC 6633; B. subtilis ATCC 6633): 31.3 mg/L
MIC (B. subtilis ATCC 6633; B. subtilis ATCC 6633): 31.3 mg/L
MBC (B. subtilis ATCC 6633; [8]): 0.1 µM/mL
MIC (B. subtilis ATCC 6633; [8]): 0.1 µM/mL
MBC (P. intermedia ATCC 25611; P. intermedia ATCC 25611): 7.8 mg/L
MIC (P. intermedia ATCC 25611; P. intermedia ATCC 25611): 7.8 mg/L
MBC (P. intermedia ATCC 25611; [9]): 0.025 µM/mL
MIC (P. intermedia ATCC 25611; [9]): 0.025 µM/mL
MBC ([2]; C. perfringens ATCC 13124): 250 mg/L
MIC ([2]; C. perfringens ATCC 13124): 250 mg/L
MBC [2, 10]: 0.8 µM/mL
MIC [2, 10]: 0.8 µM/mL
MBC (K. pneumoniae ATCC 13883; K. pneumoniae ATCC 13883): 31.3 mg/L
MIC (K. pneumoniae ATCC 13883; K. pneumoniae ATCC 13883): 31.3 mg/L
MBC (K. pneumoniae ATCC 13883; [11]): 0.1 µM/mL
MIC (K. pneumoniae ATCC 13883; [11]): 0.1 µM/mL
MBC (A. israeli ATCC 10049; A. israeli ATCC 10049): 15.6 mg/L
MIC (A. israeli ATCC 10049; A. israeli ATCC 10049): 0.98 mg/L
MBC (A. israeli ATCC 10049; [12]): 0.05 µM/mL
MIC (A. israeli ATCC 10049; [12]): 0.003 µM/mL
MBC (F. nucleatum ATCC 25586; F. nucleatum ATCC 25586): 31.3 mg/L
MIC (F. nucleatum ATCC 25586; F. nucleatum ATCC 25586): 31.3 mg/L
MBC (F. nucleatum ATCC 25586; [13]): 0.1 µM/mL
MIC (F. nucleatum ATCC 25586; [13]): 0.1 µM/mL

— PMC8869984, “Multifunctional Silver(I) Complexes with Metronidazole Drug Reveal Antimicrobial Properties and Antitumor Activity against Human Hepatoma and Colorectal Adenocarcinoma Cells” (Cancers, 2022)
